Laboratory results taken from article PMC7702303, “Biochemical and transcript level differences between the three human phosphofructokinases show optimisation of each isoform for specific metabolic niches” (Biochemical Journal, 2020).
Values joined by “and” are separate entries in the source; they are usually repeats but may differ in a detail not shown here. Equal entries are not always repeated. Where two headings read alike, the source gives them in different places. One block for each compound: values may come before it.

Columns and labels:
[1] = biological target: T1, recombinant human PFK-P (Homo sapiens, UniProt Q01813); test: ALDO-TIM-G3PDH enzyme-linked kinetic assay, PFK-P; type: biochemical
T1 construct: made in house; host or cells: PFK-deficient Saccharomyces cerevisiae
T1 sequence (Q01813 1-784): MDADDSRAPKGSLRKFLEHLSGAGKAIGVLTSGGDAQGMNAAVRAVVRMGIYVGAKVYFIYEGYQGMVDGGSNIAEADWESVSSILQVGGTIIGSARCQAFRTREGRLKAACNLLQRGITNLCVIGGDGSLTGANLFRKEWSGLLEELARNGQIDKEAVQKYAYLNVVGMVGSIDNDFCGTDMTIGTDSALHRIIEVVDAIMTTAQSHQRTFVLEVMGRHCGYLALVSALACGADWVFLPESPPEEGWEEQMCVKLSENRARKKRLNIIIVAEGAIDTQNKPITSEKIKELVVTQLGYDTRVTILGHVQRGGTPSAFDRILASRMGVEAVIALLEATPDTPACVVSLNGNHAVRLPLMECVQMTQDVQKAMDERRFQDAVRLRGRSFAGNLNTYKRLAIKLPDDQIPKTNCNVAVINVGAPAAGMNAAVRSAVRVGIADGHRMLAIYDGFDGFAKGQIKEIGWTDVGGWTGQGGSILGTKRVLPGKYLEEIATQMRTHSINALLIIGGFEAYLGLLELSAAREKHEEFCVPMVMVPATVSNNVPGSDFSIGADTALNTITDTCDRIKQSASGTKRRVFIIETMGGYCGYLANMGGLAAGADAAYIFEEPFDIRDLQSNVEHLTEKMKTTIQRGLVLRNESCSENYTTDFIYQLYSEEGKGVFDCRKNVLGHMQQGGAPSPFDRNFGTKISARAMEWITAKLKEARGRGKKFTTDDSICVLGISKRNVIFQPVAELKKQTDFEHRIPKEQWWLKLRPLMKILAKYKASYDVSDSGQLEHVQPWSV
Method: (§1) Recombinant human PFKs were expressed in PFK-deficient Saccharomyces cerevisiae and purified using the methods described previously, adapting earlier materials and protocols. Production of PFK intended for use in ATP titration experiments used 1 mM F6P as a tetramer stabilising agent in protein purification and storage buffers. Production of PFK intended for use in F6P titration experiments used 1 mM ATP as a tetramer stabilising agent in protein purification and storage buffers. Experimental details on the purification and characterisation procedures including figures showing SDS–PAGE gels of the highly pure PFKs used in the kinetic experiments described in this work have been recently published.
(§2) Assay buffer consisted of 50 mM TEA, 100 mM KCl, 10 mM MgCl2, 1 mM Tris(2-carboxyethyl)phosphine hydrochloride (TCEP), 10% glycerol, pH 7.4. Assay mix consisted of 5 units/ml glycerol-3-phosphate dehydrogenase (G3PDH, Sigma–Aldrich G6880), 2.5 units/ml aldolase (Sigma–Aldrich A2714), 25 units/ml triosephosphate isomerase (TIM, Sigma–Aldrich T6258), and 1.25 mM NADH. ATP and F6P were obtained from Sigma–Aldrich (A2383 and F3627, respectively). For ATP titrations, 38 µl of buffer or ligand were added to a clear non-binding 96-well plate. 40 µl of assay mix containing 10 mM F6P (final concentration 4 mM) was added and the plate was incubated at 25°C for 5 min. An amount of 2 µl of PFK isoforms were added to each well from stock concentrations of 150 µg/ml and the reaction was immediately started with 20 µl of ATP at varying concentrations. For F6P titrations, 30 µl of buffer or ligand was added to a clear non-binding 96-well plate. An amount of 40 µl of assay mix containing 1.25 mM ATP (final concentration 0.5 mM) was added and the plate was incubated at 25°C for 5 min. An amount of 5 µl of PFK isoforms were added to each well from stock concentrations of 200 µg/ml and the reaction was immediately started with 20 µl F6P at varying concentrations. All ligands and substrates (including ATP) were used at pH 7.4. All metabolites were obtained from Sigma–Aldrich unless otherwise stated. […] A SpectraMax M5 Multi-Mode Microplate Reader was used to measure A340nm at 13 s intervals for 10 min. All experiments were performed in triplicate unless otherwise stated.
(§3) Time-dependent absorbance change was converted into rate of NADH oxidation (µM s^−1) or specific activity (µmol min^−1 mg protein^−1) using the Beer-Lambert law (molar extinction coefficient of NADH 6.22 mM^−1 cm^−1). The initial rate of reaction was used to avoid accumulation of ADP, which activates PFK, interfering with the determination of kinetic properties. Non-linear regression analysis was performed on substrate titration data using GraphPad Prism 7, with curves fitted using allosteric sigmoidal models, enabling determination of steady-state kinetic values.

[2] = tested on: PFK; parameters: key to Effect (activator or inhibitor of PFK): “+” indicates activator; “-“ indicates inhibitor; conditions: cited from earlier work; for IC50: asterisk not explained, ref Moreno-Sanchez et al., 2012, read-out: IC50 or AC50 (inhibitor)
[3] = biological target: T2, recombinant human PFK-L (Homo sapiens, UniProt P17858); test: ALDO-TIM-G3PDH enzyme-linked kinetic assay, PFK-L; type: biochemical; conditions: PFK-L
T2 construct: made in house; host or cells: PFK-deficient Saccharomyces cerevisiae
T2 sequence (P17858 1-780): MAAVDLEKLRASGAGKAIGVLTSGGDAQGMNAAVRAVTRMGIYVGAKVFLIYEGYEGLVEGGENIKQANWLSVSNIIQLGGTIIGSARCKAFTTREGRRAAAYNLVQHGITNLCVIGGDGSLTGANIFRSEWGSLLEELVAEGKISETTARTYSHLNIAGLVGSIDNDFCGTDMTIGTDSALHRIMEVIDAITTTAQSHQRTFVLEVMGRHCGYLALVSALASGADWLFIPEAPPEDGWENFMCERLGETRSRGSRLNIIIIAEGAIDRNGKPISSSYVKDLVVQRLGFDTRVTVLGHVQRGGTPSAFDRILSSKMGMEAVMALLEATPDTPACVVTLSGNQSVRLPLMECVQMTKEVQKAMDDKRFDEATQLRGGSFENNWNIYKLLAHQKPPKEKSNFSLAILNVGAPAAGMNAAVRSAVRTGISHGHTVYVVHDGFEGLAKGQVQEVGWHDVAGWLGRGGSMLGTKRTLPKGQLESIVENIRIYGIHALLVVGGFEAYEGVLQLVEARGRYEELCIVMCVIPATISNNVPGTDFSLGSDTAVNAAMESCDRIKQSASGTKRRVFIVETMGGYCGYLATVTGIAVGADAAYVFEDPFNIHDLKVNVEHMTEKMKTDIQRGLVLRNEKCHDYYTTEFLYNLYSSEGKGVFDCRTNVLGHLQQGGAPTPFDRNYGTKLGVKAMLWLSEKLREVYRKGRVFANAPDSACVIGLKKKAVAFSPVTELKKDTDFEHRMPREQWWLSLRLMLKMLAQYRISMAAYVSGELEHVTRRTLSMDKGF
Method: as §1, §2, §3

[4] = 1 mM ATP compared with 0.5 mM ATP
[5] = ATP titration, F6P 4 mM, n = 6, mean (SD)
[6] = Hill value, ATP titration, F6P 4 mM, n = 6, mean (SD)
[7] = control without modulator, run alongside modulator experiments, F6P 4mM, N=3, mean (SD)
[8] = F6P titration, ATP 0.5 mM, n = 6, mean (SD)
[9] = control without modulator, run alongside modulator experiments, ATP 0.5mM, N=3, mean (SD)
[10] = GTP titration, F6P 4 mM, n = 3, mean (SD)
[11] = Hill value, GTP titration, F6P 4 mM, n = 3, mean (SD)

decrease in specificity constant (ATP inhibition) [1, 4]: 50%
K0.5^ATP [1, 5]: 275 µM and 276 µM and 275.6 (84.4) µM
Vmax^ATP [1, 5]: 27.2 (2.5) µmoles/min.mg
kcat^ATP [1, 5]: 39.7 (1.7) s^−1
h (ATP) [1, 6]: 0.76 (0.09)
K0.5ATP [1, 7]: 326.9 (99.7) M and 217.9 (74.5) M
decrease in specificity constant (ATP inhibition) [3, 4]: 31%
K0.5^ATP [3, 5]: 160 µM and 160.1 (13.5) µM
Vmax^ATP [3, 5]: 39.3 (1.2) µmoles/min.mg
kcat^ATP [3, 5]: 57.3 (1.7) s^−1
h (ATP) [3, 6]: 1.12 (0.08)
K0.5ATP [3, 7]: 151.2 (16.9) M and 169.0 (21.5) M
Compound: Nc1ncnc2c1ncn2[C@@H]1O[C@H](COP(=O)(O)OP(=O)(O)OP(=O)(O)O)[C@@H](O)[C@H]1O [ATP]
kcat^ATP/K0.5^ATP [1, 5]: 0.14 s^−1 µM^−1 and 0.14 (0.02) s^−1 µM^−1
VmaxATP [1, 7]: 30.74 (2.92) moles/min/mg and 23.65 (2.40) moles/min/mg
IC50 ([2]; first of three values marked *): 1100 µM
Effect (activator or inhibitor of PFK) ([2]; published literature, ref selected references in Supplementary Table 1): -
IC50 ([2]; second of three values marked *): 2900 µM
IC50 ([2]; third of three values marked *): 1750 µM
kcat^ATP/K0.5^ATP [3, 5]: 0.36 s^−1 µM^−1 and 0.36 (0.13) s^−1 µM^−1
VmaxATP [3, 7]: 39.26 (1.51) moles/min/mg and 39.36 (1.80) moles/min/mg

K0.5^F6P [1, 8]: 1333 µM and 1333 (312) µM
K0.5F6P [1, 9]: 1238 (179) M and 1607 (90) M
K0.5^F6P [3, 8]: 1360 µM and 1360 (40) µM
K0.5F6P [3, 9]: 1432 (34) M and 1282 (53) M
Compound: O=C(CO)[C@@H](O)[C@H](O)[C@H](O)COP(=O)(O)O [F6P, fructose 6-phosphate]

K0.5^GTP [1, 10]: 131 µM and 131 (20.9) µM
Vmax^GTP [1, 10]: 12.30 (0.62) µmoles/min.mg
kcat^GTP [1, 10]: 17.9 (0.9) s^−1
h (GTP) [1, 11]: 1.12 (0.18)
K0.5^GTP [3, 10]: 158 µM and 157.8 (10.8) µM
Vmax^GTP [3, 10]: 25.39 (0.56) µmoles/min.mg
kcat^GTP [3, 10]: 37.0 (0.8) s^−1
h (GTP) [3, 11]: 1.18 (0.08)
Compound: Nc1nc2c(ncn2[C@@H]2O[C@H](COP(=O)(O)OP(=O)(O)OP(=O)(O)O)[C@@H](O)[C@H]2O)c(=O)[nH]1 [GTP]
kcat^GTP/K0.5^GTP [1, 10]: 0.14 s^−1 µM^−1 and 0.14 (0.04) s^−1 µM^−1
kcat^GTP/K0.5^GTP [3, 10]: 0.23 s^−1 µM^−1 and 0.23 (0.07) s^−1 µM^−1
